In publication PMC5513037, “Examining the influence of specificity ligands and ATP-competitive ligands on the overall effectiveness of bivalent kinase inhibitors” (Proteome Science, 2017):

Experiments:
Assay in all cases: KAM-matrix competition in K562 lysate;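 for 0.001 uM KAM: median log10 fold change of treatment over DMSO control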;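 for 0.01 uM KAM: median log10 fold change of treatment over DMSO control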;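 for 0.1 uM KAM: median log10 fold change of treatment over DMSO control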;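 for 1 uM KAM: median log10 fold change of treatment over DMSO control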;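 for 10 uM KAM: median log10 fold change of treatment over DMSO control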
Type in all cases: binding
RIPK1 = biological target: T1, RIPK1 (Homo sapiens, UniProt Q13546);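 for 0.001 uM KAM: median log10 fold change of treatment over DMSO control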;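 for 0.01 uM KAM: median log10 fold change of treatment over DMSO control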;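 for 0.1 uM KAM: median log10 fold change of treatment over DMSO control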;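 for 1 uM KAM: median log10 fold change of treatment over DMSO control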;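 for 10 uM KAM: median log10 fold change of treatment over DMSO control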
T1 construct: endogenous in cells; host or cells: K562
T1 sequence (Q13546 1-671): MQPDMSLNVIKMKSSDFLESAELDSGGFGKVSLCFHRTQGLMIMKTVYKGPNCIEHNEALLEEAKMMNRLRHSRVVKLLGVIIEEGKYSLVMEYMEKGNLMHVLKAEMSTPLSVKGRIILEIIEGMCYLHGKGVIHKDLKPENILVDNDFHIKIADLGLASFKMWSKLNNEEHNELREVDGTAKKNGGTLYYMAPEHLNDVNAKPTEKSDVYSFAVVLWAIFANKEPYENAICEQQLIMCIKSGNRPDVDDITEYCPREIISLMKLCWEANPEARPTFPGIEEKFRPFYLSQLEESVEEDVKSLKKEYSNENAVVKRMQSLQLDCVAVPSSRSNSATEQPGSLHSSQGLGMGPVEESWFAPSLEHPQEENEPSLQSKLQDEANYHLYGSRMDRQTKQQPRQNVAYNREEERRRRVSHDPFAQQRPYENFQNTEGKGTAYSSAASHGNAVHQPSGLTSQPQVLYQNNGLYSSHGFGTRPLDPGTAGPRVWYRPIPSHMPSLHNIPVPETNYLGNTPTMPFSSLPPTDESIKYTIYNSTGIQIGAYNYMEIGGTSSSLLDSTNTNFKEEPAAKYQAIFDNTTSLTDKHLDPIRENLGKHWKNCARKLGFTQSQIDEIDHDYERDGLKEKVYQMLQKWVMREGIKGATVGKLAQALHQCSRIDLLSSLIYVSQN
Description: (§1) Supplement 12953_2017_125_MOESM1_ESM.zip/MS_Supp Info.xlsx, sheet "KAM" | column: 10 uM KAM; 1 uM KAM; 0.1 uM KAM; 0.01 uM KAM; 0.001 uM KAM; RB50

STK24 = biological target: T2, STK24 (Homo sapiens, UniProt Q9Y6E0);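 for 0.001 uM KAM: median log10 fold change of treatment over DMSO control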;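 for 0.01 uM KAM: median log10 fold change of treatment over DMSO control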;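 for 0.1 uM KAM: median log10 fold change of treatment over DMSO control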;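 for 1 uM KAM: median log10 fold change of treatment over DMSO control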;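 for 10 uM KAM: median log10 fold change of treatment over DMSO control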
T2 construct: endogenous in cells; host or cells: K562
Description: as §1

PTK2B = biological target: T3, PTK2B (Homo sapiens, UniProt Q14289)
T3 construct: endogenous in cells; host or cells: K562
Description: as §1

STK26 = biological target: T4, STK26 (Homo sapiens, UniProt Q9P289)
T4 construct: endogenous in cells; host or cells: K562
Description: as §1

STK25 = biological target: T5, STK25 (Homo sapiens, UniProt O00506);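 for 0.001 uM KAM: median log10 fold change of treatment over DMSO control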;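 for 0.01 uM KAM: median log10 fold change of treatment over DMSO control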;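 for 0.1 uM KAM: median log10 fold change of treatment over DMSO control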;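 for 1 uM KAM: median log10 fold change of treatment over DMSO control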;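 for 10 uM KAM: median log10 fold change of treatment over DMSO control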
T5 construct: endogenous in cells; host or cells: K562 cell lysate
Description: as §1

CLK1 = biological target: T6, CLK1 (Homo sapiens, UniProt P49759)
T6 construct: endogenous in cells; host or cells: K562
Description: as §1

CAMKK2 = biological target: T7, CAMKK2 (Homo sapiens, UniProt Q96RR4)
T7 construct: endogenous in cells; host or cells: K562
Description: as §1

BMPR2 = biological target: T8, BMPR2 (Homo sapiens, UniProt Q13873);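 for 0.001 uM KAM: median log10 fold change of treatment over DMSO control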;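 for 0.01 uM KAM: median log10 fold change of treatment over DMSO control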;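 for 0.1 uM KAM: median log10 fold change of treatment over DMSO control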;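 for 1 uM KAM: median log10 fold change of treatment over DMSO control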;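 for 10 uM KAM: median log10 fold change of treatment over DMSO control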
T8 construct: endogenous in cells; host or cells: K562
T8 sequence (Q13873 27-1038): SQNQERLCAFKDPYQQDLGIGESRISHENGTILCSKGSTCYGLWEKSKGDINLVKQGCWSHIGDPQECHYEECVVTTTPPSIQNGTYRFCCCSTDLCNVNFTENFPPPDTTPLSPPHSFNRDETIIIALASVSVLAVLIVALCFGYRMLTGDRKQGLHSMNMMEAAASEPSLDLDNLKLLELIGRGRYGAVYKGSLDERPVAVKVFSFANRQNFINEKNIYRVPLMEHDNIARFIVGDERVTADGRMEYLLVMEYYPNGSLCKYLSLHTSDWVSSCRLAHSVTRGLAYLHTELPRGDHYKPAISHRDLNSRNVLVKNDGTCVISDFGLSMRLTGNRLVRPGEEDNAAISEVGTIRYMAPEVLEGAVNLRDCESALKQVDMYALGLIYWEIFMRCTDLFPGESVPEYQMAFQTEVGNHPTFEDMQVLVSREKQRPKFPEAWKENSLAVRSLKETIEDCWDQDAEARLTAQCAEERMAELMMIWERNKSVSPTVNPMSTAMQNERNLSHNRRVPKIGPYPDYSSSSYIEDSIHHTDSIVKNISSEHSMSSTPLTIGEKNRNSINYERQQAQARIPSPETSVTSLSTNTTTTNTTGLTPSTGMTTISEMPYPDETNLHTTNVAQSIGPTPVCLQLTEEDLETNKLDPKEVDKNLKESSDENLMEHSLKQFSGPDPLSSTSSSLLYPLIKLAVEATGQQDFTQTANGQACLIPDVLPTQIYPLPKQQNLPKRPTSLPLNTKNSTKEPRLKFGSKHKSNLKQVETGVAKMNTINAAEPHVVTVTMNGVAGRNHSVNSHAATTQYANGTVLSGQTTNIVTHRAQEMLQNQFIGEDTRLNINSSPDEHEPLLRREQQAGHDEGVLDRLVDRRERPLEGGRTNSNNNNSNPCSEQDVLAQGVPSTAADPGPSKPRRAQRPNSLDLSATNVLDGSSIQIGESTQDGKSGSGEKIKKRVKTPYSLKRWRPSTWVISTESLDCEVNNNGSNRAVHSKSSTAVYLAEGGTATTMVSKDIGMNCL
Description: as §1

[1] = KAM 0.001-10 uM, read-out: RB50 (the source's name)
[2] = read-out: RB50 (the source's name)

T4 sequence (Q9P289 whole entry): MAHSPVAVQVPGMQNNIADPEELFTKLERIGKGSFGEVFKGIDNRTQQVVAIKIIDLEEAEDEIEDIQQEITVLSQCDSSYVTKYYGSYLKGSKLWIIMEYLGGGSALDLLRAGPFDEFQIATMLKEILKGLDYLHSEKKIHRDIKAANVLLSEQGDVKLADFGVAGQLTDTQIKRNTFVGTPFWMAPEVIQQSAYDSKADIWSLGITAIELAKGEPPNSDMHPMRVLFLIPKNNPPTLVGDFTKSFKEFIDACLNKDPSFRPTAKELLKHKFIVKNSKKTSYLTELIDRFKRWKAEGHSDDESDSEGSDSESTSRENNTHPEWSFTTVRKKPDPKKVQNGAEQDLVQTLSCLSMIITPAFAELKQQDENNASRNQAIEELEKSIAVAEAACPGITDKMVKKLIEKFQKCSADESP
T7 sequence (Q96RR4 whole entry): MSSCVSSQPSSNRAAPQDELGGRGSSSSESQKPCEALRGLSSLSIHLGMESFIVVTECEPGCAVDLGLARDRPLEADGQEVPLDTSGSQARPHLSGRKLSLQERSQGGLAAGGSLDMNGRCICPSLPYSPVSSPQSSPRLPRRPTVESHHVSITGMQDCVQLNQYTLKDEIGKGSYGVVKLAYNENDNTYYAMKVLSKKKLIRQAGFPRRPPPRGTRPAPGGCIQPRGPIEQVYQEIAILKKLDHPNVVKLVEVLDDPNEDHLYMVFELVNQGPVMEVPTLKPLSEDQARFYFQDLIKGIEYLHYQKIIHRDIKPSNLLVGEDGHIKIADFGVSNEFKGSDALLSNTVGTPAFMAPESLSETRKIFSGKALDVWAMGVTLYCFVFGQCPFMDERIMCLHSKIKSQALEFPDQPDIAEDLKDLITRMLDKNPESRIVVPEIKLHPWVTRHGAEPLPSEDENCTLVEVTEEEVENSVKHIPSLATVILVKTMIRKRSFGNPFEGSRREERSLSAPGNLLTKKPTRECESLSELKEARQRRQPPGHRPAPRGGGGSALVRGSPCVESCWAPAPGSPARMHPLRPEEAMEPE
T3 sequence (Q14289 whole entry): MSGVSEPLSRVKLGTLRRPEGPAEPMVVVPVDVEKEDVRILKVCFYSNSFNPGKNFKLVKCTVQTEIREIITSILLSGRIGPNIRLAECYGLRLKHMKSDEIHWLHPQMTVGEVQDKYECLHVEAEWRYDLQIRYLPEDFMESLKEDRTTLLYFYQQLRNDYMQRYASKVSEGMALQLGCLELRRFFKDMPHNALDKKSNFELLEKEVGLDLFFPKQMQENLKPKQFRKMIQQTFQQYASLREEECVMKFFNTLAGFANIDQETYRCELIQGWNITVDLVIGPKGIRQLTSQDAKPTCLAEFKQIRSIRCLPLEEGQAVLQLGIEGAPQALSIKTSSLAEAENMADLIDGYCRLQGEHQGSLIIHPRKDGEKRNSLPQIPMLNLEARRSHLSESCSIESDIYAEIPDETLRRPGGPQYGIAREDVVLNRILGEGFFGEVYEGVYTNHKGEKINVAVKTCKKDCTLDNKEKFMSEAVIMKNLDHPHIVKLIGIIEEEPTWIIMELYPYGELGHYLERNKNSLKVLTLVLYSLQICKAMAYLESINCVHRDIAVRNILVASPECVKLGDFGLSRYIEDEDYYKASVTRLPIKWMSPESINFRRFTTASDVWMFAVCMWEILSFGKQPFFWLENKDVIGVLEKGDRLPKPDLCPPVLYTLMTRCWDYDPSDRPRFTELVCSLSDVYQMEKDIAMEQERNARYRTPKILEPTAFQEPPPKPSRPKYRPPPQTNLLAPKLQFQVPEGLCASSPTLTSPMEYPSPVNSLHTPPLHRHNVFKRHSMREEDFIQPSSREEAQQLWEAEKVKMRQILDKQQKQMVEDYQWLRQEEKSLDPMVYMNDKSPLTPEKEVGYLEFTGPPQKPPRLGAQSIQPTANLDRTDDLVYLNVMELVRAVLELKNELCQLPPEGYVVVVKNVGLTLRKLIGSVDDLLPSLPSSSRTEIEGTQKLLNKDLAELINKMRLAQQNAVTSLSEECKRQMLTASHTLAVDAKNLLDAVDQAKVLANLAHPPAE
T6 sequence (P49759 whole entry): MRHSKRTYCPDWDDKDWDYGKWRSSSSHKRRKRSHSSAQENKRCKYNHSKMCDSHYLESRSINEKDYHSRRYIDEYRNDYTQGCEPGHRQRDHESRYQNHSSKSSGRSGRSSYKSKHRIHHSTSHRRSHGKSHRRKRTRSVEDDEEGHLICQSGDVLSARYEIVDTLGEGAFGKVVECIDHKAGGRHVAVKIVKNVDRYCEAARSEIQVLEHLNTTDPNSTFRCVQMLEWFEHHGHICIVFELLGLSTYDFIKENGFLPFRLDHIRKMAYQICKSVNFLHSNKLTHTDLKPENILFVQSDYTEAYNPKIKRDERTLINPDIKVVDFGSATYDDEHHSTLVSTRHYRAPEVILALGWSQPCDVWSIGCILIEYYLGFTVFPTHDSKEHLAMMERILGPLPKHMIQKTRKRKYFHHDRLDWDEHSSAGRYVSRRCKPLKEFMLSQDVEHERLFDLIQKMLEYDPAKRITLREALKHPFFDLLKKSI
T5 sequence (O00506 whole entry): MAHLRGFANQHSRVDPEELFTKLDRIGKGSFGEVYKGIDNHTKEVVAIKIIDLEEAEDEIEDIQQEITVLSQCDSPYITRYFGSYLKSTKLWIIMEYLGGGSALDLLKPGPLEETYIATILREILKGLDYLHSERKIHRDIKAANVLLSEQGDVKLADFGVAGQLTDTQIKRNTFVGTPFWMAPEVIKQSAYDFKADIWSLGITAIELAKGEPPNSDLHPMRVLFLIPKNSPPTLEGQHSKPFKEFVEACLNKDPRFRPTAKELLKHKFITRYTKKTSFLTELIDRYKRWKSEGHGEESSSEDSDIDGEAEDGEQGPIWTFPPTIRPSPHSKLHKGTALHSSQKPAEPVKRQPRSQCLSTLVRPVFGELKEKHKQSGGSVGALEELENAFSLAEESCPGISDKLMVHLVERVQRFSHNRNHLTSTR
T2 sequence (Q9Y6E0 whole entry): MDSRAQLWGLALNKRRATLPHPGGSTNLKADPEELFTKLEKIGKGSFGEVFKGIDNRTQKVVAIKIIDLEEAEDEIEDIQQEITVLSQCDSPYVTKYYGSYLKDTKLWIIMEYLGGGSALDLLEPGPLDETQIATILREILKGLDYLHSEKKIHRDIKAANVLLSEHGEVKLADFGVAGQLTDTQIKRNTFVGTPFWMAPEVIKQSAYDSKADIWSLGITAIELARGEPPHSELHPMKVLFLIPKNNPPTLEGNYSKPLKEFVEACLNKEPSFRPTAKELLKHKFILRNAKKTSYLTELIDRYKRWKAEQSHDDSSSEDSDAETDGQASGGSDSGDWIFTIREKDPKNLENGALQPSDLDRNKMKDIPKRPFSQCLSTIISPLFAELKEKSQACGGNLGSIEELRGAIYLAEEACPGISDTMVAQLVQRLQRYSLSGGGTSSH

Compound: N#CCc1ccc(Nc2nc(NCCCN)cc(Nc3cc(C4CC4)[nH]n3)n2)cc1 [KAM]
- IC50 (RIPK1; [1]): > 10000 nM
- 0.001 uM KAM (RIPK1; relative to 0 uM KAM = 0): -0.02132
- 0.01 uM KAM (RIPK1; relative to 0 uM KAM = 0): 0.0003889
- 0.1 uM KAM (RIPK1; relative to 0 uM KAM = 0): -0.08047
- 1 uM KAM (RIPK1; relative to 0 uM KAM = 0): -0.1016
- 10 uM KAM (RIPK1; relative to 0 uM KAM = 0): -0.1828
- IC50 (STK24; [1]): > 10000 nM
- 0.001 uM KAM (STK24; relative to 0 uM KAM = 0): -0.01012
- 0.01 uM KAM (STK24; relative to 0 uM KAM = 0): -0.03939
- 0.1 uM KAM (STK24; relative to 0 uM KAM = 0): -0.06162
- 1 uM KAM (STK24; relative to 0 uM KAM = 0): -0.2602
- 10 uM KAM (STK24; relative to 0 uM KAM = 0): -0.2058
- median Log10 fold change (PTK2B; 0.001 uM KAM): -0.01732
- median Log10 fold change (PTK2B; 0.01 uM KAM): -0.009714
- median Log10 fold change (PTK2B; 0.1 uM KAM): -0.1905
- median Log10 fold change (PTK2B; 1 uM KAM): -0.4119
- median Log10 fold change (PTK2B; 10 uM KAM): -0.5329
- IC50 (PTK2B; [2]): 460 nM
- median Log10 fold change (STK26; 0.001 uM KAM): -0.05178
- median Log10 fold change (STK26; 0.01 uM KAM): -0.01072
- median Log10 fold change (STK26; 0.1 uM KAM): -0.2654
- median Log10 fold change (STK26; 1 uM KAM): -0.4176
- median Log10 fold change (STK26; 10 uM KAM): -0.5788
- IC50 (STK26; [2]): 249 nM
- IC50 (STK25; [1]): > 10000 nM
- 0.001 uM KAM (STK25; relative to 0 uM KAM = 0): -0.05569
- 0.01 uM KAM (STK25; relative to 0 uM KAM = 0): -0.0234
- 0.1 uM KAM (STK25; relative to 0 uM KAM = 0): -0.1788
- 1 uM KAM (STK25; relative to 0 uM KAM = 0): -0.2616
- 10 uM KAM (STK25; relative to 0 uM KAM = 0): -0.2742
- median Log10 fold change (CLK1; 0.001 uM KAM): 0.02063
- median Log10 fold change (CLK1; 0.01 uM KAM): -0.05735
- median Log10 fold change (CLK1; 0.1 uM KAM): -0.2418
- median Log10 fold change (CLK1; 1 uM KAM): -0.3053
- median Log10 fold change (CLK1; 10 uM KAM): -0.4001
- IC50 (CLK1; [2]): 858 nM
- median Log10 fold change (CAMKK2; 0.001 uM KAM): 0.007982
- median Log10 fold change (CAMKK2; 0.01 uM KAM): -0.006148
- median Log10 fold change (CAMKK2; 0.1 uM KAM): -0.132
- median Log10 fold change (CAMKK2; 1 uM KAM): -0.4329
- median Log10 fold change (CAMKK2; 10 uM KAM): -0.5591
- IC50 (CAMKK2; [2]): 553 nM
- IC50 (BMPR2; [1]): 6670 nM
- 0.001 uM KAM (BMPR2; relative to 0 uM KAM = 0): 0.0006826
- 0.01 uM KAM (BMPR2; relative to 0 uM KAM = 0): -0.02948
- 0.1 uM KAM (BMPR2; relative to 0 uM KAM = 0): -0.09644
- 1 uM KAM (BMPR2; relative to 0 uM KAM = 0): -0.1591
- 10 uM KAM (BMPR2; relative to 0 uM KAM = 0): -0.3053
